Consider 16 molecules from PubChem BioAssay AID248 (DTP/NCI, 2004).

Each structure is given as a SMILES string. “And” between values parts separate entries of the source, which are not always exact repeats. Equal entries are not always repeated. Inconclusive results and toxic doses are left out.

This test has as its system L1210 leukemia ip in BDF1 mice, survival T/C. Kind of test: NCI In Vivo Anticancer Drug Screen. Data for tumor model L1210 Leukemia (intraperitoneal) in B6D2F1 (BDF1) mice. The note with it: endpoint: mean survival time, higher = longer survival. The method in brief:
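Ratio derived from survival: compound-dosed mice over vehicle-dosed mice, all bearing a transplantable tumor.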

Setting [1] is: dose: 400.0 mg/kg/injection, schedule: Q01DX001 (ip), vehicle: saline.
Where [2] appears, read: dose: 100.0 mg/kg/injection, schedule: Q01DX001 (ip), vehicle: carboxymethylcellulose (CMC).
Setting [3] is: dose: 200.0 mg/kg/injection, schedule: Q01DX001 (ip), vehicle: carboxymethylcellulose (CMC).
[4] abbreviates: dose: 5.0 mg/kg/injection, schedule: Q01DX001 (ip), vehicle: saline.
The mark [5] stands for this setting: dose: 10.0 mg/kg/injection, schedule: Q01DX001 (ip), vehicle: saline.
Where [6] appears, read: dose: 20.0 mg/kg/injection, schedule: Q01DX001 (ip), vehicle: saline.
The mark [7] stands for this setting: dose: 40.0 mg/kg/injection, schedule: Q01DX001 (ip), vehicle: saline.
[8] abbreviates: dose: 100.0 mg/kg/injection, schedule: Q01DX001 (ip), vehicle: saline.
[9] abbreviates: dose: 200.0 mg/kg/injection, schedule: Q01DX001 (ip), vehicle: saline.
The mark [10] stands for this setting: dose: 100.0 mg/kg/injection, schedule: Q01DX009 (ip), vehicle: Klucel (hydroxypropylcellulose) (HPC).
[11] abbreviates: dose: 200.0 mg/kg/injection, schedule: Q01DX009 (ip), vehicle: Klucel (hydroxypropylcellulose) (HPC).
[12] abbreviates: dose: 400.0 mg/kg/injection, schedule: Q01DX009 (ip), vehicle: Klucel (hydroxypropylcellulose) (HPC).
Where [13] appears, read: dose: 100.0 mg/kg/injection, schedule: Q04DX003 (ip), vehicle: saline with Tween-80.

For the molecule `Cc1cccc2c(Nc3ccc(NS(C)(=O)=O)cc3)c3ccc([N+](=O)[O-])cc3nc12`, the T/C runs as follows: (dose: 4.8 mg/kg/injection, schedule: Q01DX009 (ip), vehicle: Klucel (hydroxypropylcellulose) (HPC)) 151 % of control; (dose: 9.5 mg/kg/injection, schedule: Q01DX009 (ip), vehicle: Klucel (hydroxypropylcellulose) (HPC)) 176 % of control; (dose: 10.0 mg/kg/injection, schedule: Q01DX009 (sc), vehicle: saline) 107 % of control; (dose: 19.0 mg/kg/injection, schedule: Q01DX009 (ip), vehicle: Klucel (hydroxypropylcellulose) (HPC)) 154 % of control; (dose: 20.0 mg/kg/injection, schedule: Q01DX009 (sc), vehicle: saline) 121 % of control; (dose: 40.0 mg/kg/injection, schedule: Q01DX009 (sc), vehicle: saline) 123 % of control. The T/C runs as follows: (dose: 80.0 mg/kg/injection, schedule: Q01DX009 (sc), vehicle: saline) 152 % of control; (dose: 178.0 mg/kg/injection, schedule: Q01DX001 (ip), vehicle: saline) 102 % of control; (dose: 267.0 mg/kg/injection, schedule: Q01DX001 (ip), vehicle: saline) 97 % of control; under setting [1], 103 % of control.

Consider `CC(Cl)CN(Cc1cc(CN(CC(C)Cl)CC(C)Cl)c(O)cc1O)CC(C)Cl` (centres undefined), for which the T/C runs as follows: (dose: 12.5 mg/kg/injection, schedule: Q01DX001 (sc), vehicle: olive oil, sesame oil, peanut oil) 102 % of control; (dose: 12.5 mg/kg/injection, schedule: Q01DX015 (sc), vehicle: olive oil, sesame oil, peanut oil) 95 % of control; (dose: 25.0 mg/kg/injection, schedule: Q01DX001 (sc), vehicle: olive oil, sesame oil, peanut oil) 100 % of control; (dose: 25.0 mg/kg/injection, schedule: Q01DX015 (sc), vehicle: olive oil, sesame oil, peanut oil) 110 % of control; (dose: 50.0 mg/kg/injection, schedule: Q01DX001 (ip), vehicle: carboxymethylcellulose (CMC)) 93 % of control; (dose: 50.0 mg/kg/injection, schedule: Q01DX001 (sc), vehicle: olive oil, sesame oil, peanut oil) 96 % of control. Further, the T/C reads like this: (dose: 50.0 mg/kg/injection, schedule: Q01DX015 (sc), vehicle: olive oil, sesame oil, peanut oil) 93 % of control; under setting [2], 110 % of control; (dose: 100.0 mg/kg/injection, schedule: Q01DX001 (sc), vehicle: olive oil, sesame oil, peanut oil) 102 % of control; (dose: 100.0 mg/kg/injection, schedule: Q01DX015 (sc), vehicle: olive oil, sesame oil, peanut oil) 95 % of control; under setting [3], 110 % of control; (dose: 200.0 mg/kg/injection, schedule: Q01DX015 (sc), vehicle: olive oil, sesame oil, peanut oil) 112 % of control. Moreover, the T/C (dose: 400.0 mg/kg/injection, schedule: Q01DX001 (ip), vehicle: carboxymethylcellulose (CMC)) is 104 % of control; the T/C (dose: 400.0 mg/kg/injection, schedule: Q01DX015 (sc), vehicle: olive oil, sesame oil, peanut oil) is 104 % of control; the T/C (dose: 600.0 mg/kg/injection, schedule: Q01DX015 (sc), vehicle: olive oil, sesame oil, peanut oil) was 102 % of control.

In the case of `OCCN(CCO)CCN1c2ccccc2Sc2ccccc21`, the T/C was 95 % of control under setting [4]; 97 % of control under setting [5]; 92 % of control under setting [6]; 95 % of control under setting [7]; 95 % of control (dose: 80.0 mg/kg/injection, schedule: Q01DX001 (ip), vehicle: saline); 96 % of control under setting [8]. Under setting [9], the T/C was 112 % of control.

For `Cc1ccc(NC(=O)OCC2CC3C=CC2C3)cc1NC(=O)OCC1CC2C=CC1C2` (centres undefined), the T/C is 87 % of control under setting [10], 90 % of control under setting [11] and 90 % of control under setting [12].

`Oc1cccc(N=Cc2ccccc2O)c1`: the T/C (dose: 100.0 mg/kg/injection, schedule: Q01DX001 (ip), vehicle: Klucel (hydroxypropylcellulose) (HPC)) is 102 % of control; the T/C under setting [8] is 97 % of control; the T/C (dose: 200.0 mg/kg/injection, schedule: Q01DX001 (ip), vehicle: Klucel (hydroxypropylcellulose) (HPC)) was 96 % of control; the T/C under setting [9] is 100 % of control; the T/C (dose: 400.0 mg/kg/injection, schedule: Q01DX001 (ip), vehicle: Klucel (hydroxypropylcellulose) (HPC)) was 101 % of control; the T/C under setting [1] is 105 % of control.

As to `CC(C)OCCCN`, the T/C runs as follows: under setting [2], 97 % of control; under setting [3], 97 % of control.

Regarding `COc1ccc(N(N=O)C(C)=O)cc1`, the T/C by setting is: under setting [4], 95 % of control; under setting [5], 97 % of control; under setting [6], 106 % of control; under setting [7], 106 % of control.

For the molecule `CC(=O)Nc1ccc(/C=N/NC(=S)Nc2cccc3cccnc23)cc1`, the T/C reads like this: under setting [8], 92 % of control; under setting [9], 97 % of control; under setting [1], 97 % of control.

`S=C(N/N=C/c1ccccn1)N/N=C/c1ccccn1`: the T/C runs as follows: (dose: 20.0 mg/kg/injection, schedule: Q01DX009 (ip), vehicle: saline with Tween-80) 105 % of control; (dose: 33.0 mg/kg/injection, schedule: Q01DX009 (ip), vehicle: saline with Tween-80) 100 % of control; (dose: 50.0 mg/kg/injection, schedule: Q01DX009 (ip), vehicle: saline with Tween-80) 152 % of control; under setting [13], 103 % of control.

For the molecule `CC(=O)Nc1ccc(OC(=O)Nc2ccc(Cl)c([N+](=O)[O-])c2)cc1`, the T/C runs as follows: under setting [10], 97 % of control; (dose: 100.0 mg/kg/injection, schedule: Q04DX003 (ip), vehicle: Klucel (hydroxypropylcellulose) (HPC)) 112 % of control; under setting [11], 104 % of control; (dose: 200.0 mg/kg/injection, schedule: Q04DX003 (ip), vehicle: Klucel (hydroxypropylcellulose) (HPC)) 97 % of control; under setting [12], 93 % of control; (dose: 400.0 mg/kg/injection, schedule: Q04DX003 (ip), vehicle: Klucel (hydroxypropylcellulose) (HPC)) 92 % of control.

For the molecule `CC(=O)SCC(CSC(C)=O)c1nncc2ccccc12`, the T/C under setting [8] is 95 % of control.

With `CCCCCCNC(=O)Nc1ccc(Cl)c(Cl)c1`, the T/C runs as follows: under setting [8], 98 % of control; under setting [9], 101 % of control; under setting [1], 95 % of control.

Turning to `NC(CSC(c1ccccc1)(c1ccccc1)c1ccc(C(=O)O)cc1)C(=O)O` (centres undefined), the T/C by setting is: (dose: 12.5 mg/kg/injection, schedule: Q01DX009 (ip), vehicle: water) 106 % of control; (dose: 25.0 mg/kg/injection, schedule: Q01DX009 (ip), vehicle: water) 102 % of control and 103 % of control; (dose: 50.0 mg/kg/injection, schedule: Q01DX009 (ip), vehicle: water) 103 % of control and 100 % of control; (dose: 100.0 mg/kg/injection, schedule: Q01DX009 (ip), vehicle: water) 101 % of control and 108 % of control; (dose: 200.0 mg/kg/injection, schedule: Q01DX009 (ip), vehicle: water) 102 % of control; (dose: 400.0 mg/kg/injection, schedule: Q01DX009 (ip), vehicle: water) 97 % of control and 102 % of control.

With `CC(=O)OC1c2ccccc2-c2ccc([N+](=O)[O-])cc21` (centres undefined), the T/C runs as follows: under setting [13], 93 % of control and 100 % of control; (dose: 200.0 mg/kg/injection, schedule: Q04DX003 (ip), vehicle: saline with Tween-80) 100 % of control and 102 % of control; (dose: 400.0 mg/kg/injection, schedule: Q04DX003 (ip), vehicle: saline with Tween-80) 96 % of control and 98 % of control.

In the case of `COC/C(C)=C/Cl`, the T/C reads like this: (dose: 100.0 mg/kg/injection, schedule: Q01DX001 (ip), vehicle: acetone) 102 % of control; (dose: 200.0 mg/kg/injection, schedule: Q01DX001 (ip), vehicle: acetone) 100 % of control; (dose: 400.0 mg/kg/injection, schedule: Q01DX001 (ip), vehicle: acetone) 96 % of control.

As to `CCOC(=S)c1ccc(S(=O)(=O)NCc2ccccc2)cc1`, the T/C was 100 % of control (dose: 100.0 mg/kg/injection, schedule: Q01DX001 (ip), vehicle: saline with Tween-80); 102 % of control (dose: 200.0 mg/kg/injection, schedule: Q01DX001 (ip), vehicle: saline with Tween-80); 100 % of control (dose: 400.0 mg/kg/injection, schedule: Q01DX001 (ip), vehicle: saline with Tween-80).
